Measurements reported in publication PMC5584945, “Evaluation of robenidine analog NCL195 as a novel broad-spectrum antibacterial agent” (PLoS ONE, 2017).
Like-named read-outs stand apart in the source and are kept apart here.

Columns and labels:
[1] = Pharmacokinetics after IP administration; format: in vivo, mouse; details: mice, IP 43 mg/kg
Description: Mice had access to food and water ad libitum throughout the pre- and post-dose sampling period. The Animal Ethics Committee of the Monash Institute of Pharmaceutical Sciences reviewed and approved all animal PK experiments (approval number MIPS.2013.33). The PK studies were conducted in compliance with the Australian Code of Practice for the Care and Use of Animals for Scientific Purposes (7th Edition 2004). […] For both the IV and IP administration, a maximum of two samples were obtained from each mouse, with samples being taken either via submandibular bleed (approximately 120 μl; conscious sampling) or terminal cardiac puncture (0.6 ml; under inhaled Isoflurane anesthesia). No urine samples were collected as mice were housed in bedded cages during the study. […] Mice were humanely sacrificed by cervical dislocation while under anaesthesia (using gaseous isoflurane) at the end of experiments. Blood was collected directly into polypropylene Eppendorf tubes containing heparin as anti-coagulant, and stabilization cocktail (containing Complete (a protease inhibitor cocktail with EDTA) and potassium fluoride) to minimize the potential for ex vivo degradation of the test compounds in blood/plasma samples. Once collected, blood samples were centrifuged immediately, supernatant plasma was removed, and stored at either -80°C (for the IV exposure) or at -20°C (for the IP exposure) until analysis by liquid chromatography-mass spectrometry (LC-MS). Following protein precipitation with acetonitrile, thawed plasma samples were analyzed by LC-MS (Waters Micromass Quattro Premier coupled to a Waters Acquity UPLC) using positive electrospray ionization operating in MRM mode.

[2] = system: A. baumannii, E. coli, K. pneumoniae and P. aeruginosa; test: MIC with sub-inhibitory EDTA or polymyxin B, Gram-negative panel; format: cell-based
Description: (§1) MICs for NCL812 and its analogs (serial two-fold dilutions commencing at 128 μg/ml) were determined (in duplicate) in round bottom 96-well microtitre trays (Sarstedt 82.1582.001), using the broth micro-dilution method recommended by the Clinical and Laboratory Standards Institute (CLSI). […] MIC50, MIC90 and MIC range for NCL812, NCL195 and NCL219 were calculated against each S. pneumoniae, S. aureus or VRE isolate. To assess the potential activity of NCL195 against Gram-negative bacteria, MICs against Acinetobacter spp, E. coli, K. pneumoniae, P. aeruginosa, Proteus spp and Neisseria meningitidis were performed in the presence or absence of 0.08 mM-20 mM EDTA in a standard checkerboard assay.

[3] = system: E. coli; test: MIC alone and checkerboard with EDTA or polymyxin B; format: cell-based; details: for MIC: Escherichia coli, read-out: MIC, agent alone
Description: as §1

[4] = system: K. pneumoniae; test: as above; format: cell-based; details: for MIC of NCL195 in combination with EDTA: with EDTA 10 mM; for MIC: Klebsiella pneumoniae, read-out: MIC, agent alone
Description: as §1

[5] = system: P. aeruginosa; test: as above; format: cell-based; details: for MIC: Pseudomonas aeruginosa, read-out: MIC, agent alone
Description: as §1

[6] = system: A. calcoaceticus; test: MIC, broth micro-dilution; format: cell-based; details: 8 A. calcoaceticus isolates; absence of EDTA
Description: as §1

[7] = system: A. anitratus; test: MIC, broth micro-dilution; format: cell-based; details: Acinetobacter calcoaceticus; one A. anitratus isolate; absence of EDTA
Description: as §1

[8] = system: Neisseria meningitidis; test: Activity against Neisseria meningitidis; format: cell-based
Description: as §1

With Cc1ccc(/C=N/Nc2cc(N/N=C/c3ccc(C)cc3)nc(N)n2)cc1 [NCL195, 4,6-bis(2-((E)-4-methylbenzylidene)hydrazinyl)pyrimidin-2-amine] the “Adverse reactions after IP administration” value [1] was “No adverse reactions or compound-related side effects were observed”, the Plasma concentration ([1]; between 7.5 and 24 h post-dose) was 200 to 500 ng/mL and the Plasma concentration ([1]; initial 7.5 h post-dose) was 3000 to 4000 ng/mL. For the same molecule, the MIC ([2]; in the presence of sub-inhibitory concentrations of EDTA) was 0.25 to 8 µg/mL, the MIC ([2]; in the presence of sub-inhibitory concentrations of polymyxin B) was 0.25 to 1 µg/mL and the “MIC of NCL195 in combination with EDTA” value ([3]; E. coli ATCC 11229, with EDTA 0.625 mM) was 8 µg/mL. For the same molecule, the “MIC of NCL195 in combination with polymyxin B” value (“MIC … with polymyxin B” below) ([3]; E. coli ATCC 11229) was 0.25 µg/mL, the “MIC of NCL195 in combination with EDTA” value ([3]; E. coli ATCC 25922, with EDTA 2.5 mM) was 4 µg/mL and the “MIC … with polymyxin B” value ([3]; E. coli ATCC 25922) was 0.25 µg/mL. The MIC ([3]; ATCC11229, E. coli ATCC 11229) was > 128 µg/mL, the MIC ([3]; ATCC25922, E. coli ATCC 25922) was > 128 µg/mL and the “MIC of NCL195 in combination with EDTA” value ([4]; K. pneumoniae ATCC 4352) was 4 µg/mL. For the same molecule, the “MIC … with polymyxin B” value ([4]; K. pneumoniae ATCC 4352) was 0.5 µg/mL, the “MIC of NCL195 in combination with EDTA” value ([4]; K. pneumoniae ATCC 33495) was 4 µg/mL and the “MIC … with polymyxin B” value ([4]; K. pneumoniae ATCC 33495) was 0.25 µg/mL. For the same molecule, the MIC ([4]; ATCC4352, K. pneumoniae ATCC 4352) was > 128 µg/mL, the MIC ([4]; ATCC33495, K. pneumoniae ATCC 33495) was > 128 µg/mL and the “MIC of NCL195 in combination with EDTA” value ([5]; P. aeruginosa ATCC 27853, with EDTA 5 mM) was 2 µg/mL. For the same molecule, the “MIC … with polymyxin B” value ([5]; P. aeruginosa ATCC 27853) was 1 µg/mL, the “MIC of NCL195 in combination with EDTA” value ([5]; P. aeruginosa PA01, with EDTA […]) was 0.25 µg/mL and the “MIC … with polymyxin B” value ([5]; P. aeruginosa PA01) was 1 µg/mL. The MIC ([5]; ATCC27853, P. aeruginosa ATCC 27853) was > 128 µg/mL, the MIC ([5]; P. aeruginosa PA01) was > 128 µg/mL and the MIC range [6] was 4 to 32 µg/mL. For the same molecule, the MIC [7] was 4 µg/mL and the “Activity against Neisseria meningitidis” value [8] was “bactericidal”.
